# Experiments:
# [1] = tested on: male Sprague-Dawley (SD) rat; test: Permanent middle cerebral artery occlusion (MCAO) stroke model; assay type: in vivo
# Method: More particularly, a permanent middle cerebral artery (MCA) occlusion model was prepared using a male Sprague-Dawley (SD) rat aged 8 to 9 weeks. At time points of 30 minutes before MCAO and 10 minutes after the same, cerebral blood flow (CBF) was measured by a laser-doppler flowmeter and the measured results are shown in Table 3 below. Then, 15 minutes after middle cerebral artery occlusion (MCAO), the compound #28, which is finally selected as an AMPK inhibitor (75 ng/3 μl), or a vehicle (10% DMSO) was provided to an area of 0.8 mm on a back and 1.2 mm on a lateral of bregma at a depth of 3.8 mm through intra-cerebroventricular injection. Thereafter, a degree of lack of movement (‘motor deficit’) was evaluated in the rat, in particular, standards for evaluation are classified as follows (Longa et al., 1989): no deficiency (normal); failure of extending the front foots when vertically stopping (mild); rotation on the opposite side (moderate); and rotation loss (loss of circling) or loss of reflex motion (serious deficit). After induction of ischemia in the rat model, the brain was obtained at the time of lapse of 24 hours, followed by determining a level of cerebral infraction by staining the brain with 2% 2,3,5-triphenyl tetrazolium chloride (TTC).
# [2] = Free zinc concentration by fluorescent dye (Newport green DCF, FluoZin-3); assay type: physicochemical
# Method: Further, in conjunction with clioquinol (20 μM) or the drug #28 (20 μM), a zinc fluorescent dye, i.e., Newport green DCF (0.5 μM, Kd(Zn)=1 uM) or FluoZin-3 (0.5 μM, Kd(Zn)=15 nM) was used for measurement of free zinc concentration.
# [3] = target: T1, recombinant AMPK (α2/β1/γ1) (Homo sapiens, UniProt P54646); test: AMPK enzymatic activity assay (CycLex kit); assay type: biochemical
# T1 construct: purchased CycLex, Japan
# Method: More particularly, AMPK enzymatic activity was measured by an AMPK activity assay kit (CycLex, Japan) and recombinant AMPK (α2/β1/γ1 CycLex, Japan).
# neuronal cells = test: H2O2-mediated intracellular zinc increase, FluoZin-3 staining; assay type: cell-based; conditions: FluoZin-3, confocal microscopy
# T1 sequence (P54646 whole entry): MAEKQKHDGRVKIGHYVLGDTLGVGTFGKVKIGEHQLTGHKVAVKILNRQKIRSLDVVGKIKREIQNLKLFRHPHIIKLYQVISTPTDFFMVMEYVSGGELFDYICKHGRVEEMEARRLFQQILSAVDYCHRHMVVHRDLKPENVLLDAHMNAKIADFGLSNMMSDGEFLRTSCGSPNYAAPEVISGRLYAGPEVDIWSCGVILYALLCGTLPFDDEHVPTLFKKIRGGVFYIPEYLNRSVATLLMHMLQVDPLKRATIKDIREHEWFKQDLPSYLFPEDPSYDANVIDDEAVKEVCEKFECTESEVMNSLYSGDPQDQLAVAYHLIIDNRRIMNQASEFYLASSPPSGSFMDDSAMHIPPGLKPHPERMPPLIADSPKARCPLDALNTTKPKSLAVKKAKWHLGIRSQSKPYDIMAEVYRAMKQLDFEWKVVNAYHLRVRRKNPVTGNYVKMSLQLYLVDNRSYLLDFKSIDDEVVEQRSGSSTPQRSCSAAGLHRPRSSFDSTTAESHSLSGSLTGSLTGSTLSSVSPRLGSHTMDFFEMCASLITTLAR
# T1 sequence (Q9Y478 whole entry partner): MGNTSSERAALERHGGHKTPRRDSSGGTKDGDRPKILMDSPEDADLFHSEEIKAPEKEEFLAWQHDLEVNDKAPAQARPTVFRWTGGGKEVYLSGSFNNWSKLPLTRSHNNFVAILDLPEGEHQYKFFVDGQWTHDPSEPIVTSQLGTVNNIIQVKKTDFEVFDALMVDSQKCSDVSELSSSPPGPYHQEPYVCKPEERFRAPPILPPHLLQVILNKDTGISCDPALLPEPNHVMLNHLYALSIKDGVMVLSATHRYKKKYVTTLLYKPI
# T1 sequence (P54619 whole entry partner): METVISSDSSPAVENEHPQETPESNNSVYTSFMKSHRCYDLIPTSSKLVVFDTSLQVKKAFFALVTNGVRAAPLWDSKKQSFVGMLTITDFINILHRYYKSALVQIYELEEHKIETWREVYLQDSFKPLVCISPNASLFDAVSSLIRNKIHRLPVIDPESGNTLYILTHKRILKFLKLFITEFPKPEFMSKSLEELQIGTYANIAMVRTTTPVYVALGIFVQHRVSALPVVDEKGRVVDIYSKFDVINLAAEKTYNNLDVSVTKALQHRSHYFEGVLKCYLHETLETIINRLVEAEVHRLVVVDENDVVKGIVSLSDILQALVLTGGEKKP
smiles,measurement,setting,value
"O=C1N=C(Nc2cccc(O)c2)S/C1=C\c1c[nH]c2ccccc12 [compound 28, (Z)-5-((1H-indol-3-yl)methylene)-2-((3-hydroxyphenyl)amino)thiazol-4(5H)-one]",brain damage due to permanent MCAO,"[1]; 75 ng/3 μl intra-cerebroventricular 15 min after MCAO, TTC staining at 24 hours",significantly inhibit brain damage
same,Weight reduction,"[1]; MCAO rat, 75 ng/3 μl intra-cerebroventricular",43.8 ± 6.1 g
same,zinc affinity compared to clioquinol,[2],considerably low compared to clioquinol
same,"free zinc concentration, low concentration zinc","[2]; 20 μM, FluoZin-3 (FIG. 13)",did not show remarkable effects
same,"free zinc concentration, high concentration zinc","[2]; 20 μM, Newport green DCF (FIG. 12)",exhibited effects of decreasing the free zinc concentration
same,free zinc ions,"[2]; 20 μM, Newport green DCF or FluoZin-3",reduce free zinc ions
same,remaining activity at 10 µM,[3],3.97%
same,zinc in the neuronal cells during H2O2 toxicity,neuronal cells,zinc reduction in the neuronal cells

# — patent publication US20190167647A1, “PHARMACEUTICAL COMPOSITION FOR STROKE TREATMENT BASED ON AMPK INHIBITION” (INDUSTRY ACADEMY COOPERATION FOUNDATION OF SEJONG UNIVERSITY, priority 2016, published 2019)
